The record followed here is patent publication US11634390B2, “Agricultural chemicals” (GLOBACHEM NV, priority 2016, dated 2023).

Format in all cases: in vivo
One assay relates to Stellaria media. In words: Herbicidal screen, post-emergence spray of seedlings in pots: Chickweed. Conditions: Stellaria media, post-emergence, 240 h, assessed 10 days after treatment, read-out: percentage increase in necrosis relative to the control. In a few lines:
(§1)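 Seedlings were sprayed post-emergence two weeks after sowing, at 100, 50, 25 and 12.5 g/ha, with water controls and three replicates. Pots were held at 20 °C and scored 10 days after treatment on % plants showing growth. Necrosis increase over control was banded: d none, c 0.1-50, b 50-80, a 80-100.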

Another assay concerns Abutilon theophrasti. The assay can be described thus: Herbicidal screen, post-emergence spray of seedlings in pots: velvetleaf. The settings on record: Abutilon theophrasti, post-emergence, 240 h, assessed 10 days after treatment, read-out: percentage increase in necrosis relative to the control. In a few lines: as §1
The test system of a further assay is Amaranthus retroflexus. In words: Herbicidal screen, post-emergence spray of seedlings in pots: common amaranthus. Conditions: Amaranthus retroflexus, post-emergence, 240 h, assessed 10 days after treatment, read-out: percentage increase in necrosis relative to the control. The gist of the method: as §1
Another assay deals with Echinochloa crus-galli. The assay can be described thus: Herbicidal screen, post-emergence spray of seedlings in pots: Barnyard grass. The settings on record: Echinochloa crus-galli, post-emergence, 240 h, assessed 10 days after treatment, read-out: percentage increase in necrosis relative to the control. In a few lines:
as §1

The subject of a further assay is maize. The assay can be described thus: Herbicidal screen, post-emergence spray of seedlings in pots: crop species. The settings on record: Zea mays, post-emergence, 240 h, assessed 10 days after treatment, read-out: percentage increase in necrosis relative to the control. In a few lines:
as §1

The next assay relates to four weed species. The assay can be described thus: Herbicidal screen, summary across the four weed species. The settings on record: summary in words, 12.5-100 g/ha. The protocol:
Compounds were screened at four concentrations (100, 50, 25 and 12.5 g/ha) against four weed species (Stellaria media—Chickweed; Abutilon theophrasti—velvetleaf; Amaranthus retroflexus—common amaranthus; Echinochloa crus-galli—Barnyard grass) and maize as a crop species. Seed were sown in 12.5 cm diameter pots (20 per pot for the weed species and 5 for maize). Seedlings were sprayed with 2 ml of compound two weeks after sowing, with 2 ml water used as the control. Each treatment was replicated three times. Plants were maintained at 20° C. and assessed 10 days after treatment. The assessment was based on the % plant in each pot showing growth. The data is presented in Table 1 in which d represents no detected effect at this concentration; c represents a percentage increase in necrosis relative to the control of 0.1-50; b represents a percentage increase in necrosis of 50-80; and a represents a percentage increase in necrosis of 80-100.

In the case of `Cn1c(C(F)(F)F)cc(=O)n(-c2cc(C(=O)NS(=O)(=O)C3CCCCC3)c(Cl)cc2F)c1=O` [Example 14, 2-Chloro-N-(cyclohexylsulfonyl)-4-fluoro-5-(3-methyl-2,6-dioxo-4-(trifluoromethyl)-3,6-dihydropyrimidin-1(2H)-yl)benzamide], in the assay with Stellaria media, the pest or weed control at 12.5 g/ha is 0.1 to 50%, the pest or weed control at 25 g/ha lay in the range of 0.1 to 50%, the pest or weed control at 50 g/ha lay within 50 to 80% and the pest or weed control at 100 g/ha is 80 to 100%. Further, in the assay with Abutilon theophrasti, the pest or weed control at 12.5 g/ha lay in the range of 50 to 80%, the pest or weed control at 25 g/ha lay in the range of 50 to 80%, the pest or weed control at 50 g/ha lay within 80 to 100% and the pest or weed control at 100 g/ha was in the range of 80 to 100%. In the assay on Amaranthus retroflexus, the pest or weed control at 12.5 g/ha fell in the range of 80 to 100%, the pest or weed control at 25 g/ha was 80 to 100%, the pest or weed control at 50 g/ha lay within 80 to 100% and the pest or weed control at 100 g/ha was 80 to 100%. Also, in the assay with Echinochloa crus-galli, the pest or weed control at 12.5 g/ha is 0.1 to 50%, the pest or weed control at 25 g/ha is 0.1 to 50%, the pest or weed control at 50 g/ha fell in the range of 0.1 to 50% and the pest or weed control at 100 g/ha was 0.1 to 50%. Moreover, in the assay on maize, the plant injury at 12.5 g/ha was in the range of 0.1 to 50%, the plant injury at 25 g/ha fell in the range of 0.1 to 50%, the plant injury at 50 g/ha lay in the range of 0.1 to 50% and the plant injury at 100 g/ha was 0.1 to 50%. In addition, the “herbicidal activity against the weed species” value (“herbicidal activity” below) in the assay on four weed species is recorded as “good activity across several of the weed species”.

`Cn1c(C(F)(F)F)cc(=O)n(-c2cc(C(=O)NS(=O)(=O)C3(F)CC3)c(Cl)cc2F)c1=O` [Example 16, 2-Chloro-4-fluoro-N-((1-fluorocyclopropyl)sulfonyl)-5-(3-methyl-2,6-dioxo-4-(trifluoromethyl)-3,6-dihydropyrimidin-1(2H)-yl)benzamide]: in the assay on Stellaria media, the pest or weed control at 12.5 g/ha lay within 0.1 to 50%, the pest or weed control at 25 g/ha was in the range of 0.1 to 50%, the pest or weed control at 50 g/ha lay within 0.1 to 50% and the pest or weed control at 100 g/ha is 80 to 100%. For the same compound, in the assay on Abutilon theophrasti, the pest or weed control at 12.5 g/ha lay in the range of 0.1 to 50%, the pest or weed control at 25 g/ha fell in the range of 0.1 to 50%, the pest or weed control at 50 g/ha was 50 to 80% and the pest or weed control at 100 g/ha was in the range of 80 to 100%. Also, in the assay on Amaranthus retroflexus, the pest or weed control at 12.5 g/ha lay within 0.1 to 50%, the pest or weed control at 25 g/ha fell in the range of 0.1 to 50%, the pest or weed control at 50 g/ha was 80 to 100% and the pest or weed control at 100 g/ha was in the range of 80 to 100%. In the assay with Echinochloa crus-galli, the pest or weed control at 12.5 g/ha was 0.1 to 50%, the pest or weed control at 25 g/ha was 0.1 to 50%, the pest or weed control at 50 g/ha lay in the range of 50 to 80% and the pest or weed control at 100 g/ha fell in the range of 50 to 80%. In addition, in the assay with maize, the plant injury at 12.5 g/ha was 0.1 to 50%, the plant injury at 25 g/ha was 0.1 to 50%, the plant injury at 50 g/ha was 0.1 to 50% and the plant injury at 100 g/ha fell in the range of 0.1 to 50%. In addition, in the assay with four weed species, the “herbicidal activity” value is on record as “good activity across several of the weed species”.

On to `CCC1(S(=O)(=O)NC(=O)c2cc(-n3c(=O)cc(C(F)(F)F)n(C)c3=O)c(F)cc2Cl)CC1` [Example 17, 2-Chloro-N-((1-ethylcyclopropyl)sulfonyl)-4-fluoro-5-(3-methyl-2,6-dioxo-4-(trifluoromethyl)-3,6-dihydropyrimidin-1(2H)-yl)benzamide], for which, in the assay with Stellaria media, the pest or weed control at 12.5 g/ha lay within 0.1 to 50%, the pest or weed control at 25 g/ha fell in the range of 50 to 80%, the pest or weed control at 50 g/ha was in the range of 50 to 80% and the pest or weed control at 100 g/ha is 80 to 100%. Also, in the assay with Abutilon theophrasti, the pest or weed control at 12.5 g/ha was in the range of 0.1 to 50%, the pest or weed control at 25 g/ha was in the range of 0.1 to 50%, the pest or weed control at 50 g/ha fell in the range of 50 to 80% and the pest or weed control at 100 g/ha lay within 80 to 100%. In the assay with Amaranthus retroflexus, the pest or weed control at 12.5 g/ha lay in the range of 0.1 to 50%, the pest or weed control at 25 g/ha was in the range of 50 to 80%, the pest or weed control at 50 g/ha was 80 to 100% and the pest or weed control at 100 g/ha was in the range of 80 to 100%. Besides, in the assay on Echinochloa crus-galli, the pest or weed control at 12.5 g/ha lay in the range of 0.1 to 50%, the pest or weed control at 25 g/ha was in the range of 50 to 80%, the pest or weed control at 50 g/ha lay within 50 to 80% and the pest or weed control at 100 g/ha fell in the range of 50 to 80%. For the same compound, in the assay on maize, the plant injury at 12.5 g/ha lay within 0.1 to 50%, the plant injury at 25 g/ha was in the range of 0.1 to 50%, the plant injury at 50 g/ha was in the range of 0.1 to 50% and the plant injury at 100 g/ha was in the range of 0.1 to 50%. Besides, in the assay on four weed species, the “herbicidal activity” value is listed as “good activity across several of the weed species”.
